Results taken from US20240383856A1 (Zedira GmbH, priority 2021, published 2024).
Where two headings read alike, the source gives them in different places.

How the values were obtained:
[1] = Caco-2 permeability assay (CacoReady kit); format: in vitro ADME; conditions: human
In short: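 Intestinal permeability modelled with kit-supplied Caco-2 barriers, run as the maker specifies; each compound reported as Papp.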

[2] = logD by shake flask method (octanol / PBS pH 7.4, HPLC); format: physicochemical; conditions: octanol / PBS pH 7.4, shake flask
In short: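 LogD obtained by HPLC measurement of how the compound distributes between PBS (pH 7.4) and octanol in a shake-flask experiment.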

[3] = Multiple-dosing PK study, tissue concentration in lung and liver; format: in vivo; conditions: mice, 200 mg/kg oral twice daily, after the eighth dose (four days)
Description: Additionally, in a multiple-dosing PK study, II-3 was orally administered to 3 mice with 200 mg/kg doses (dose volume 10 mL/kg) twice daily (12 h intervals). After the animals were sacrificed, the liver and lung were removed. The homogenates of the respective tissues were analyzed by LC-MS to determine the concentration of the compound. The tissue concentration in lung and liver after the eighth dose (four days) was 6,800 and 10,400 ng/g, respectively, showing that the compound reaches the tissue at pharmacological active concentration.

Papp ([1]; Caco-2, Caco-2, read-out: Papp [cm/s] ×10^−6): 8.4 ×10⁻⁶ cm/s | Papp ([1]; Caco-2, Caco-2 barrier, CacoReady kit, above 1×10^−6 cm/s classified as permeable): 1 to 10 ×10⁻⁶ cm/s | logD [2]: 1 to 3 | tissue concentration in liver [3]: 10,400 ng/g | tissue concentration in lung [3]: 6,800 ng/g
Compound: CNC(=O)C(=O)CC[C@H](NC(=O)c1oc2ccccc2c1C)C(=O)Nc1cccn(CC(=O)NC2C3CC4CC(C3)CC2C4)c1=O (stereo partly drawn) [II-3, (S)-N1-(1-(2-(2-adamantylamino)-2-oxoethyl)-2-oxo-1,2-dihydropyridin-3-yl)-N6-methyl-2-(3-methylbenzofuran-2-carboxamido)-5-oxohexanediamide]
